Experimental data as given in patent publication US20200129476A1, “PARP Inhibitor in Combination with a Glucocorticoid and/or Ascorbic Acid and/or a Protein Growth Factor for the Treatment of Impaired Wound Healing” (AKRIBES BIOMEDICAL GMBH, priority 2017, published 2020).

What was measured:
cells = assay: Titration to reveal potential toxic effects on cells; assay type: cell-based; settings: titrated on cells
Protocol: Mifepristone, a glucocorticoid and progesterone receptor antagonist, was titrated to reveal potential toxic effects on cells and then used at the well tolerated concentration of 1 μM to counteract glucocorticoid- and progesterone-type compounds (dexamethasone, prednisolone, medroxyprogesterone, etc.). Protein growth factors (see list in Table 1) were dissolved according to the manufacturers' recommendations and used at final concentrations ranging from 0.02 to 1000 ng/ml.

[1] = tested on: primary human dermal fibroblasts (HDF); assay: Primary human dermal fibroblast (HDF) proliferation assay (2D), with or without wound exudate; assay type: cell-based; settings: mifepristone as antagonist, WE present
Protocol: Primary human dermal fibroblasts (HDF) were purchased from CELLnTEC, Bern. They were routinely grown in Dulbecco's modified Eagle's medium (DMEM) containing 10% FCS, 2 mM glutamine, and 100 U/ml penicillin/100 μg/ml streptomycin. Media, antibiotics, and glutamine were bought from Lonza. The cells were used at passage 5-15. Cells were trypsinized and seeded at 5000 cells/well in 200 μl into the inner wells of 96-well plates. The outer wells were loaded with sterile water. The cells were allowed to adhere overnight and then incubated for 72 hours at 37° C. under the following conditions: graded compound concentrations or 20 ng/ml PDGF-BB (Tonbo Biosciences) in the absence or presence of different dilutions of sterile-filtered WE in medium. For control samples, 200p1 medium was added instead of specific stimuli. Alternatively, the cells were seeded into 384-well plates at 2500 cells/well directly together with test compounds or growth factors and WE or medium in a total volume of […].
At the end of the 72-hour incubation period, supernatants were removed for the determination of IL-1ß, and the cells were fixed with 4% paraformaldehyde (Morphisto) for 15 minutes at room temperature and washed 3 times with PBS. A control plate was fixed after the overnight adherence of the cells (day 1) to determine the starting cell number.
Total cellular protein was determined as a measure of cell number by staining the fixed cells with sulforhodamine B (SRB, Sigma). A 0.4% SRB solution in 1% acetic acid was added to the wells for 30 minutes. The wells were then washed with 1 acetic acid until the wash solution remained colorless. After drying, the dye was eluted with 10 mM Tris.HCl, pH8.5, and absorbance was measured either at 550 or 492 nm for lower and higher cell densities, respectively. The average absorbance of the sample representing the day 1 starting cell number (for 96-well plates) was subtracted from the absorbance values of the WE-treated cells.
All experiments were carried out in triplicate for each sample and concentration, and means±standard deviation (SD) were used for the evaluation of the experiment. Results are expressed as percentage of control values for unstimulated cells.
Low molecular weight compounds (see list in Table 1) were dissolved in DMSO (Bioreagent for cell culture, Sigma) at 10 mM or 100 mM and diluted at least 1:1000 in medium for cellular assays (final DMSO concentration ≤0.1%).
Cells were incubated with compounds for 72 hours in proliferation assays and up to 8 days for FDM assay (refreshed after 4 days). When compounds were tested for their effect on WE stimulation, the incubation of cells with compounds was started and ended simultaneously with WE-incubation.

SMILES: CC#C[C@]1(O)CC[C@H]2[C@@H]3CCC4=CC(=O)CCC4=C3[C@@H](c3ccc(N(C)C)cc3)C[C@@]21C [mifepristone, Mifepristone]
- well tolerated concentration (cells): 1 µM
- reversal of glucocorticoid effects on HDF proliferation [1]: reversible
